Consider 11 compounds from ChEMBL document CHEMBL1155993, “5-(2-Pyrimidinyl)-imidazo[1,2-a]pyridines are antibacterial agents targeting the ATPase domains of DNA gyrase and topoisomerase IV” (Bioorg Med Chem Lett, 2009).

Assay [1] has as its system Streptococcus pneumoniae. Nature of the assay: Antibacterial activity against Streptococcus pneumoniae SP-3 by NCCLS method. The format is functional.
For the next assay, the system named is Streptococcus pyogenes. The assay is described as follows: Antibacterial activity against Streptococcus pyogenes SP1-1 by NCCLS method. Format: functional.
In assay [2] the test system is Streptococcus pneumoniae. Nature of the assay: Antibacterial activity against fluoroquinolone resistant Streptococcus pneumoniae SP-3765 by NCCLS method. Format: functional.
The subject of assay [3] is Staphylococcus aureus. Nature of the assay: Antibacterial activity against Staphylococcus aureus UC76 by NCCLS method. Format: functional, organism-based. As to conditions: read-out: MIC.
The next assay addresses T1, ParE (Streptococcus pneumoniae, UniProt Q7X1P7).
T1 sequence (Q7X1P7 whole entry): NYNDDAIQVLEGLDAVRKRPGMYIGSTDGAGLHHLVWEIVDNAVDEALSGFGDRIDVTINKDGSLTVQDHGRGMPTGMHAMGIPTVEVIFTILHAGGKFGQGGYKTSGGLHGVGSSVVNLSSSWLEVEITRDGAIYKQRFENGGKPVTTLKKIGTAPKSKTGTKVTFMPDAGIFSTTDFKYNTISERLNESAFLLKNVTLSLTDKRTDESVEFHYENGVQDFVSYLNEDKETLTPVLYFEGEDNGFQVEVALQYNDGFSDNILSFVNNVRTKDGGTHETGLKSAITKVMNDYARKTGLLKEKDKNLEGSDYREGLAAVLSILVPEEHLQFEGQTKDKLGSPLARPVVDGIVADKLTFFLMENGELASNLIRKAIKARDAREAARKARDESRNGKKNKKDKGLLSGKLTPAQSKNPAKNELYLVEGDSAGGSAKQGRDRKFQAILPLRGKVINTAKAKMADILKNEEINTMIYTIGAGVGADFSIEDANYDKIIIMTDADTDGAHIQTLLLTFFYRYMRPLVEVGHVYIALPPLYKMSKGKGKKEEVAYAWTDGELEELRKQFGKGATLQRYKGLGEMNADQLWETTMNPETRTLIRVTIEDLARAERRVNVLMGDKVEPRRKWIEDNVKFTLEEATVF
The assay is described as follows: Inhibition of Streptococcus pneumoniae SP-3 parE after 30 mins.

For another assay, the target named is DNA gyrase subunit B (Streptococcus pneumoniae serotype 4 (strain ATCC BAA-334 / TIGR4), UniProt P0A4L9). Nature of the assay: Inhibition of Streptococcus pneumoniae SP-3 gyrB by enzyme coupled phosphate assay.
Sequence of DNA gyrase subunit B (P0A4L9 whole entry): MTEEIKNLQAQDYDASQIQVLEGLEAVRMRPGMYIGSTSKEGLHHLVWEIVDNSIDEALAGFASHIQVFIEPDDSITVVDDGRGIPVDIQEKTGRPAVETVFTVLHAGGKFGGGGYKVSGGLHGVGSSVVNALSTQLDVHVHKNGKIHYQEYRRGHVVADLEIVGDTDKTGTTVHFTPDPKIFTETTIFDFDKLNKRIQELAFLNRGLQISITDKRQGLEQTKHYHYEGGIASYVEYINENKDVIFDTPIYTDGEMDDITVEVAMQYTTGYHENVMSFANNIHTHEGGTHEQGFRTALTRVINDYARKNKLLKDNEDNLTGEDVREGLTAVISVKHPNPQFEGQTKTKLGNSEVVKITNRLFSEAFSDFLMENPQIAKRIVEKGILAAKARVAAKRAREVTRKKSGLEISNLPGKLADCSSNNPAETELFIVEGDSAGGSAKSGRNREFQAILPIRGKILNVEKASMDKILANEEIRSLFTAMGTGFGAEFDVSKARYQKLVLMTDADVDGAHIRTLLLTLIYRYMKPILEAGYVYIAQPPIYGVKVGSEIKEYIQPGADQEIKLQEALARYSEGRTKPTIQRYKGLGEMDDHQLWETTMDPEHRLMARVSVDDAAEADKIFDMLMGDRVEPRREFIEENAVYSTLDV
Assay [4] deals with Staphylococcus aureus. The assay is described as follows: Antibacterial activity against methicillin resistant Staphylococcus aureus SA-1417 by NCCLS method. Format: functional.

pIC50: −log10 of the molar value. In brackets after ≈: the same amount, converted by molar mass.

In the case of `CCNC(=O)Nc1cn2c(-c3ncc(C)cn3)cc(-c3ccn(C)c(=O)c3)cc2n1`, the MIC against Streptococcus pneumoniae [1] amounted to 0.06 µg/mL (≈ 0.149 µM); with Streptococcus pyogenes, 0.125 µg/mL (≈ 0.31 µM); with Streptococcus pneumoniae [2], 0.06 µg/mL (≈ 0.149 µM); in the assay on Staphylococcus aureus [3], 0.5 µg/mL (≈ 1.24 µM).

Take `CCNC(=O)Nc1cn2c(-c3ncc(C(F)(F)F)cn3)cc(-c3cccnc3)cc2n1`: the MIC was found to be 0.5 µg/mL (≈ 1.17 µM) against Streptococcus pneumoniae [1]; 1 µg/mL (≈ 2.34 µM) against Streptococcus pyogenes; 0.25 µg/mL (≈ 0.585 µM) against Streptococcus pneumoniae [2]; 1 µg/mL (≈ 2.34 µM) in the assay with Staphylococcus aureus [3]; 1 µg/mL (≈ 2.34 µM) with Staphylococcus aureus [4]. For the same compound, the pIC50 is 6.44 at ParE and 6.79 on DNA gyrase subunit B.

Regarding `CCC(=O)Nc1cn2c(-c3ncc(C)cn3)cc(-c3cccnc3)cc2n1`, the MIC with Streptococcus pneumoniae [1] is 16 µg/mL (≈ 44.6 µM); with Streptococcus pyogenes it was 16 µg/mL (≈ 44.6 µM); with Streptococcus pneumoniae [2], 16 µg/mL (≈ 44.6 µM); in the assay on Staphylococcus aureus [3] it was 64 µg/mL (≈ 179 µM); in the assay with Staphylococcus aureus [4] it was above 64 µg/mL. The figures for the pIC50 at ParE and against DNA gyrase subunit B were 5.30 and 6.59, respectively.

For `CCNC(=O)Nc1cn2c(-c3nccc(C4CC4)n3)cc(-c3cccnc3)cc2n1`, the MIC with Streptococcus pneumoniae [1] is 0.125 µg/mL (≈ 0.313 µM); with Streptococcus pyogenes, 1 µg/mL (≈ 2.5 µM); in the assay on Streptococcus pneumoniae [2], 0.25 µg/mL (≈ 0.626 µM); with Staphylococcus aureus [3], 0.5 µg/mL (≈ 1.25 µM); with Staphylococcus aureus [4] it was 0.5 µg/mL (≈ 1.25 µM). Moreover, the pIC50 is 5.43 against ParE and 6.48 against DNA gyrase subunit B.

For the compound `CCNC(=O)Nc1cn2c(-c3ncc(C)cn3)cc(-c3cnc(N4CCCC4)nc3)cc2n1`, the MIC against Streptococcus pneumoniae [1] was found to be 0.125 µg/mL (≈ 0.282 µM); in the assay on Streptococcus pyogenes it was 0.25 µg/mL (≈ 0.564 µM); in the assay with Streptococcus pneumoniae [2], 0.06 µg/mL (≈ 0.135 µM); with Staphylococcus aureus [3], 0.5 µg/mL (≈ 1.13 µM). Further, the pIC50 is 6.44 at ParE and 6.61 on DNA gyrase subunit B.

For `CCNC(=O)Nc1cn2c(-c3ncc(Cl)cn3)cc(-c3cccnc3)cc2n1`, the minimum inhibitory concentration (MIC) was found to be 0.06 µg/mL (≈ 0.152 µM) against Streptococcus pneumoniae [1]; 0.125 µg/mL (≈ 0.317 µM) against Streptococcus pyogenes; 0.03 µg/mL (≈ 0.0762 µM) with Streptococcus pneumoniae [2]; 0.25 µg/mL (≈ 0.635 µM) in the assay with Staphylococcus aureus [3]; 0.25 µg/mL (≈ 0.635 µM) against Staphylococcus aureus [4]. Also, the pIC50 was 6.38 at ParE and 6.83 at DNA gyrase subunit B.

`CCNC(=O)Nc1cn2c(-c3ncccn3)cc(-c3ccc(C)nc3)cc2n1`: the MIC is 0.06 µg/mL (≈ 0.161 µM) against Streptococcus pneumoniae [1], 0.25 µg/mL (≈ 0.669 µM) against Streptococcus pyogenes, 0.06 µg/mL (≈ 0.161 µM) against Streptococcus pneumoniae [2] and 0.25 µg/mL (≈ 0.669 µM) with Staphylococcus aureus [3]. For the same compound, the pIC50 was 6.92 on ParE and 7.36 against DNA gyrase subunit B.

Consider `CCNC(=O)Nc1cn2c(-c3ncc(S(C)(=O)=O)cn3)cc(-c3cccnc3)cc2n1`, for which the MIC worked out at 8 µg/mL (≈ 18.3 µM) against Streptococcus pneumoniae [1], 64 µg/mL (≈ 146 µM) in the assay with Streptococcus pyogenes, 16 µg/mL (≈ 36.6 µM) against Streptococcus pneumoniae [2] and 64 µg/mL (≈ 146 µM) with Staphylococcus aureus [3]. Moreover, the pIC50 on ParE is 5.74; against DNA gyrase subunit B it was 6.36.

Consider `Cc1cnc(-c2cc(-c3cccnc3)cc3nc(NC(=O)NC4CC4)cn23)nc1`, for which the MIC was 1 µg/mL (≈ 2.59 µM) with Streptococcus pneumoniae [1]; 16 µg/mL (≈ 41.5 µM) against Streptococcus pyogenes; 0.25 µg/mL (≈ 0.649 µM) against Streptococcus pneumoniae [2]; 64 µg/mL (≈ 166 µM) in the assay with Staphylococcus aureus [3]; above 64 µg/mL with Staphylococcus aureus [4]. Further, the pIC50 is 6.24 at ParE and 6.53 against DNA gyrase subunit B.

In the case of `CCNC(=O)Nc1cn2c(-c3ncc(C(C)C)cn3)cc(-c3cccnc3)cc2n1`, the MIC with Streptococcus pneumoniae [1] amounted to 0.25 µg/mL (≈ 0.623 µM); against Streptococcus pyogenes it was 0.5 µg/mL (≈ 1.25 µM); against Streptococcus pneumoniae [2], 0.25 µg/mL (≈ 0.623 µM); in the assay with Staphylococcus aureus [3], 1 µg/mL (≈ 2.49 µM). The pIC50 at ParE was 5.86; against DNA gyrase subunit B, 5.72.

Take `CCNC(=O)Nc1cn2c(-c3ncccn3)cc(-c3cnc(N(C)C)nc3)cc2n1`: the minimum inhibitory concentration (MIC) in the assay with Streptococcus pneumoniae [1] was 0.125 µg/mL (≈ 0.31 µM); with Streptococcus pyogenes it was 0.25 µg/mL (≈ 0.62 µM); against Streptococcus pneumoniae [2] it was 0.125 µg/mL (≈ 0.31 µM); with Staphylococcus aureus [3], 1 µg/mL (≈ 2.48 µM). Moreover, the pIC50 on ParE is 6.21; on DNA gyrase subunit B it was 6.86.

A word on the MIC: it is the lowest concentration found to suppress growth. By pIC50 is commonly meant the negative decadic logarithm of the IC50, by convention in mol/L. The low end stands for a large IC50, the high end for a small IC50.
